Measured values as given in patent US4269857A, “Control of plant-virus diseases” (Kureha Kagaku Kogyo Kabushiki Kaisha, priority 1978, dated 1981).
Like-named read-outs stand apart in the source and are kept apart here.

Legend:
[1] = system: tobacco mosaic virus (TMV); test: Inhibition of local lesion formation by TMV, half-leaf method on kidney bean primary leaves; assay type: in vivo, tobacco mosaic virus on kidney bean plants (variety: Otebo); details: for inhibition at 500 ppm: Tobacco mosaic virus, read-out: Evaluation (rate of inhibition of lesion spot formation)
Text: In the experiments one of the compounds of the present invention was formulated as in the above-mentioned Example 3 and after diluting the formulated composition with water to a predetermined concentration.
In this test, the inhibiting action of the compound of the present invention against the formation of local lesion due to the infection of tobacco mosaic virus (TMV) was examined by the half-leaf method using primary leaves of kedny been plants (variety: Otebo). TMV was inoculated on the primary leaf of kedney been plant, and just after the inoculation, the diluted liquid of the compound was painted on the half surface of the leaf and water was painted on the other half surface of the leaf. The concentration of the compounds of the present invention in the liquid was 500 ppm, and the inoculum was adjusted to form about 50 topical lesion spots on the half surface of the leaf painted with water (control). Ten leaves were usually used for the evaluation of one compound, and the rate of inhibition of lesion spot formation was derived from the following formula: [formula]
The thus obtained rates of inhibition were evaluated according to the following criteria: […]

[2] = system: cucumber mosaic virus (CMV); test: Inhibition of CMV disease transmitted by aphids (Myzus persicae) on cucumber plants; assay type: in vivo; details: CMV via wingless aphids, 500 ppm, sprayed before aphid transmigration, one week after spray
Text: The followings are the test results of the compounds of the present invention in the plant virus disease-controlling experiments. In the experiments one of the compounds of the present invention was formulated as in the above-mentioned Example 3 and after diluting the formulated composition with water to a predetermined concentration.
The compounds evaluated as A in Test results 2 were further tested as follows:
The cucumber plants growing for two weeks after sowing in greenhouse were sprayed by each liquid containing each compound at a concentration of 500 ppm (variety of cucumber: Kinseisanto). After drying at room temperature about 3 hours, wingless aphids (Myzus persicae, Sulzer) which had been put on the suffered cucumber plant from CMV and shipped the plant sap containing CMV were transmigrated to the sprayed cucumber plants at a rate of 5 insects per plant. On the next day of the transmigration, the insects were killed by spraying dichlorvos in the plants. After one week of the spray of the compound of the present invention, the effectiveness of the compound in inhibiting the occurrence of the sign of disease due to the virus was investigated as the number of plants without the sign of disease per number of plants sprayed. As the control, water was sprayed.

[3] = TMV, kidney bean primary leaves, 500 ppm, painted just after inoculation, half-leaf method

Structure (SMILES) | inhibition at 500 ppm [1, 3] [%] | Evaluation (rate of inhibition of lesion spot formation) [1, 3] | further results
CCCCNC[C@H](O)[C@@H](O)[C@H](O)[C@H](O)CO [Compound 3] | – | – | inhibition at 500 ppm [1]: 70 to 90%
CCCCCNC[C@H](O)[C@@H](O)[C@H](O)[C@H](O)CO [Compound 5] | 70 to 90 | – | –
CCCCCCNC[C@H](O)[C@@H](O)[C@H](O)[C@H](O)CO [Compound 7] | 70 to 90 | – | –
CCCCCCCCNC[C@H](O)[C@@H](O)[C@H](O)[C@H](O)CO [Compound 8] | 70 to 90 | – | –
CCCCCCCCCCNC[C@H](O)[C@@H](O)[C@H](O)[C@H](O)CO [Compound 10] | 90 to 100 | – | Evaluation (number of plants without the sign of disease per number of plants sprayed) [2]: B (7/10-5/10)
CCCCCCCCCCCCNC[C@H](O)[C@@H](O)[C@H](O)[C@H](O)CO [Compound 12] | 90 to 100 | – | Evaluation (number of plants without the sign of disease per number of plants sprayed) [2]: A (10/10-8/10)
CCCCCCCCCCCCNC[C@H](O)[C@@H](O)[C@H](O)[C@H](O)CO [Compound 13] | – | A (100-90) | Evaluation (number of plants without the sign of disease per number of plants sprayed) [2]: A (10/10-8/10)
CCCCCCCCCCCCNC[C@H](O)[C@@H](O)[C@H](O)[C@H](O)CO [Compound 14] | – | A (100-90) | Evaluation (number of plants without the sign of disease per number of plants sprayed) [2]: B (7/10-5/10)
CCCCCCCCCCCCNC[C@H](O)[C@@H](O)[C@H](O)[C@H](O)CO [Compound 15] | – | A (100-90) | Evaluation (number of plants without the sign of disease per number of plants sprayed) [2]: A (10/10-8/10)
CCCCCCCCCCCCNC[C@H](O)[C@@H](O)[C@H](O)[C@H](O)CO [Compound 16] | – | A (100-90) | Evaluation (number of plants without the sign of disease per number of plants sprayed) [2]: A (10/10-8/10)
CCCCCCCCCCCCNC[C@H](O)[C@@H](O)[C@H](O)[C@H](O)CO [Compound 17] | – | B (90-70) | –
CCCCCCCCCCCCCCNC[C@H](O)[C@@H](O)[C@H](O)[C@H](O)CO [Compound 18] | 70 to 90 | – | –
CCCCCCCCCCCCCCCNC[C@H](O)[C@@H](O)[C@H](O)[C@H](O)CO [Compound 20] | 70 to 90 | – | –
CCCCCCCCCCCCCCCCNC[C@H](O)[C@@H](O)[C@H](O)[C@H](O)CO [Compound 23] | 70 to 90 | – | –
CCCCCCCCCCCCCCCCCCNC[C@H](O)[C@@H](O)[C@H](O)[C@H](O)CO [Compound 24, 1-deoxy-1-n-octadecylamino-D-glucitol] | 90 to 100 | – | Evaluation (number of plants without the sign of disease per number of plants sprayed) [2]: A (10/10-8/10)
CCCCCCCCCCNC[C@@H](O)[C@@H](O)[C@H](O)[C@H](O)CO [Compound 26] | 90 to 100 | – | Evaluation (number of plants without the sign of disease per number of plants sprayed) [2]: B (7/10-5/10)
CCCCCCCCCCNC[C@@H](O)[C@@H](O)[C@H](O)[C@H](O)CO [Compound 27] | – | – | Evaluation (number of plants without the sign of disease per number of plants sprayed) [2]: B (7/10-5/10)
CCCCCCCCCCCCNC[C@@H](O)[C@@H](O)[C@H](O)[C@H](O)CO [Compound 28] | 90 to 100 | – | –
CCCCCCCCCCCCNC[C@@H](O)[C@@H](O)[C@H](O)[C@H](O)CO.Cl [Compound 29, 1-deoxy-1-n-dodecylamino-D-mannitol hydrochloride] | – | A (100-90) | Evaluation (number of plants without the sign of disease per number of plants sprayed) [2]: B (7/10-5/10)
CCCCCCCCCCCCNC[C@@H](O)[C@@H](O)[C@H](O)[C@H](O)CO [Compound 30] | – | B (90-70) | –
CCCCCCCCCCCCNC[C@@H](O)[C@@H](O)[C@H](O)[C@H](O)CO [Compound 31] | – | A (100-90) | –
CCCCCCCCCCCCNC[C@@H](O)[C@@H](O)[C@H](O)[C@H](O)CO [Compound 32] | – | A (100-90) | –
CCCCCCCCCCCCCCNC[C@@H](O)[C@@H](O)[C@H](O)[C@H](O)CO [Compound 33] | 70 to 90 | – | –
CCCCCCCCCCCCNC[C@H](O)[C@@H](O)[C@@H](O)[C@H](O)CO [Compound 35] | 70 to 90 | – | –

Structure (SMILES) | inhibition at 500 ppm [1, 3] [%] | Evaluation (rate of inhibition of lesion spot formation) [1, 3] | further results
CCCCCCCCCCCCNC[C@H](O)[C@@H](O)[C@@H](O)[C@H](O)CO [Compound 36] | – | B (90-70) | –
CCCCCCCCCCCCNC[C@H](O)[C@@H](O)[C@@H](O)[C@H](O)CO [Compound 37] | – | B (90-70) | –
CCCCCCCCCCCCNC[C@H](O)[C@H](O)[C@@H](O)[C@H](C)O [Compound 38] | 70 to 90 | – | –
CCCCCCCCCCCCNCC[C@@H](O)[C@H](O)[C@H](O)CO [Compound 41] | 90 to 100 | – | –
CCCCCCCCCCCCNCC[C@@H](O)[C@H](O)[C@H](O)CO [Compound 42] | – | B (90-70) | –
CCCCCCCCCCNC[C@H](O)[C@H](O)[C@H](O)CO [Compound 43] | 90 to 100 | – | –
CCCCCCCCCCCCNC[C@H](O)[C@H](O)[C@H](O)CO [Compound 44] | – | B (90-70) | –
CCCCCCCCCCCCNC[C@H](O)[C@H](O)[C@H](O)CO [Compound 45] | 70 to 90 | – | –
CCCCCCCCCCCCNC[C@H](O)[C@H](O)[C@H](O)CO [Compound 46] | – | A (100-90) | –
CCCCCCCCCCCCNC[C@H](O)[C@H](O)[C@H](O)CO [Compound 47] | – | A (100-90) | –
CCCCCCCCCCCCNC[C@H](O)[C@H](O)[C@H](O)CO [Compound 48] | – | A (100-90) | Evaluation (number of plants without the sign of disease per number of plants sprayed) [2]: A (10/10-8/10)
CCCCCCCCCCCCCCNC[C@H](O)[C@H](O)[C@H](O)CO [Compound 49] | 90 to 100 | – | Evaluation (number of plants without the sign of disease per number of plants sprayed) [2]: A (10/10-8/10)
CCCCCCCCCCNC[C@H](O)[C@@H](O)[C@H](O)CO [Compound 50] | 70 to 90 | – | –
CCCCCCCCCCNC[C@H](O)[C@@H](O)[C@H](O)CO [Compound 51] | – | A (100-90) | –
CCCCCCCCCCCCNC[C@H](O)[C@@H](O)[C@H](O)CO [Compound 52] | 90 to 100 | – | Evaluation (number of plants without the sign of disease per number of plants sprayed) [2]: A (10/10-8/10)
CCCCCCCCCCCCCCNC[C@H](O)[C@@H](O)[C@H](O)CO [Compound 53] | 90 to 100 | – | Evaluation (number of plants without the sign of disease per number of plants sprayed) [2]: A (10/10-8/10)
CCCCCCCCCCCCCCNC[C@H](O)[C@@H](O)[C@H](O)CO [Compound 54] | – | A (100-90) | –
CCCCCCCCCCCCCCCCCCNC[C@H](O)[C@@H](O)[C@H](O[C@H]1O[C@H](CO)[C@@H](O)[C@H](O)[C@H]1O)[C@H](O)CO [Compound 56] | 90 to 100 | – | –
CCCCCCCCCCCCCCCCCCNC[C@H](O)[C@@H](O)[C@H](O[C@H]1O[C@H](CO)[C@@H](O)[C@H](O)[C@H]1O)[C@H](O)CO [Compound 57] | – | B (90-70) | –
CCCCCCCCCCCCCCCCCCNC[C@H](O)[C@@H](O)[C@H](O[C@@H]1O[C@H](CO)[C@H](O)[C@H](O)[C@H]1O)[C@H](O)CO [Compound 59] | 90 to 100 | – | –
CCCCCCCCCCCCCCCCCCNC[C@H](O)[C@@H](O)[C@H](O[C@@H]1O[C@H](CO)[C@H](O)[C@H](O)[C@H]1O)[C@H](O)CO [Compound 60] | – | B (90-70) | –
CCCCCCCCCCCCCCCCCCNC[C@H](O)[C@@H](O)[C@H](O[C@@H]1O[C@H](CO)[C@@H](O)[C@H](O)[C@H]1O)[C@H](O)CO [Compound 62] | 70 to 90 | – | –
CCCCCCCCCCCCCCCCCCNC[C@H](O)[C@@H](O)[C@H](O[C@@H]1O[C@H](CO)[C@@H](O)[C@H](O)[C@H]1O)[C@H](O)CO [Compound 63] | – | B (90-70) | –
